Laboratory results taken from patent US10409869B2, “(R)- and (S)-1-(3-(3-N,N-dimethylaminocarbonyl)phenoxyl-4-nitrophenyl)-1-ethyl-N,N'-bis (ethylene)phosphoramidate, compositions and methods for their use and preparation” (OBI Pharma, Inc., priority 2015, dated 2019).

How the values were obtained:
Type in all cases: in vivo, Cynomolgus monkeys
[1] = Plasma concentration and TK after 30-min IV infusion at 2 mg/kg; conditions: for AUC(0-inf) / AUC(0-t): Cynomolgus, cynomolgus monkey, plasma, iv, 2 mg/kg
Protocol: (§1) TH 3423 and TH 3424 were tested in […] naïve monkeys (1 male and one female for each compound at 2 mg/kg) with 30-min intravenous infusion, TK sampling: on Day 1 and Day 15: 0.25, 0.5, 0.75, 1 and 2 hr post infusion initiation. Serum chemistry and hematology: pre-dose (Day 1), day 5, day 8 (pre-dose), day 15 (pre-dose), day 22 and day 28. Clinical observation: Daily during the study, total 35 days. Food consumption: Daily during the study, total 35 days. Bodyweight measurement: Twice weekly for five weeks.

[2] = Hematology in monkeys, 2 mg/kg 30-min IV infusion
Protocol: as §1

[3] = Body weight in monkeys, 2 mg/kg 30-min IV infusion; conditions: Day 1, Mean
Protocol: as §1

## C[C@@H](OP(=O)(N1CC1)N1CC1)c1ccc([N+](=O)[O-])c(Oc2cccc(C(=O)N(C)C)c2)c1 (single isomer, unassigned) [TH3423]
[1]; 2 hr, female
  Plasma concentration: BQL
[1]; both sexes, Mean
  AUC(0-inf): 770 ng·h/mL
  AUC(0-t): 766 ng·h/mL
[1]; female
  AUC(0-inf): 766 ng·h/mL
  AUC(0-t): 758 ng·h/mL
[1]; male
  AUC(0-inf): 774 ng·h/mL
  AUC(0-t): 773 ng·h/mL
[2]; female, Day 1 (pre-dose)
  % BASO: 0.0%
  % EOS: 2.3%
  % MONO: 4.8%
  % NEUT: 47.9%
  HCT: 35%
  HGB: 112 g/L
  LYM: 45%
  MCH: 24 pg
  MCHC: 320 g/L
  MCV: 74.9 fL
  MPV: 10.6 fL
  PCT: 0.338%
  PDW: 14.8
  PLT: 3.18e+11 L⁻¹
  RBC: 4.67e+12 L⁻¹
  RDW-CV: 11.8%
  RDW-SD: 37.2 fL
  WBC: 6.7e+09 L⁻¹
  abs_basos: 0 L⁻¹
  abs_eos: 1.5e+08 L⁻¹
  abs_lymphs: 3.02e+09 L⁻¹
  abs_monos: 3.2e+08 L⁻¹
  abs_neuts: 3.21e+09 L⁻¹
[2]; female, Day 8 (pre-dose)
  % BASO: 0.20%
  % EOS: 2.30%
  % MONO: 0.00%
  % NEUT: 61.90%
  HCT: 39.80%
  HGB: 128.00 g/L
  LYM: 35.60%
  MCH: 24.60 pg
  MCHC: 322.00 g/L
  MCV: 76.30 fL
  MPV: 9.60 fL
  PCT: 0.67%
  PDW: 15.40
  PLT: 6.99e+11 L⁻¹
  RBC: 5.21e+12 L⁻¹
  RDW-CV: 12.30%
  RDW-SD: 39.50 fL
  WBC: 1.035e+10 L⁻¹
  abs_basos: 2e+07 L⁻¹
  abs_eos: 2.5e+08 L⁻¹
  abs_lymphs: 3.68e+09 L⁻¹
  abs_monos: 0 L⁻¹
  abs_neuts: 6.4e+09 L⁻¹
[2]; female, Day 15 (pre-dose)
  % BASO: 0.10%
  % EOS: 2.70%
  % MONO: 6.30%
  % NEUT: 63.0%
  HCT: 33.9%
  HGB: 115 g/L
  LYM: 27.90%
  MCH: 24.0 pg
  MCHC: 339 g/L
  MCV: 70.6 fL
  MPV: 8.70 fL
  PCT: 0.46%
  PDW: 15.10
  PLT: 5.33e+11 L⁻¹
  RBC: 4.8e+12 L⁻¹
  RDW-CV: 10.9%
  RDW-SD: 32.3 fL
  WBC: 9.56e+09 L⁻¹
  abs_basos: 1e+07 L⁻¹
  abs_eos: 2.6e+08 L⁻¹
  abs_lymphs: 2.67e+09 L⁻¹
  abs_monos: 6e+08 L⁻¹
  abs_neuts: 6.02e+09 L⁻¹
[2]; male, Day 1 (pre-dose)
  % BASO: 0.0%
  % EOS: 2.4%
  % MONO: 5.5%
  % NEUT: 55.4%
  HCT: 40.8%
  HGB: 132 g/L
  LYM: 36.7%
  MCH: 25.4 pg
  MCHC: 324 g/L
  MCV: 78.3 fL
  MPV: 10.2 fL
  PCT: 0.365%
  PDW: 15.1
  PLT: 3.58e+11 L⁻¹
  RBC: 5.2e+12 L⁻¹
  RDW-CV: 11.6%
  RDW-SD: 38.2 fL
  WBC: 5.33e+09 L⁻¹
  abs_basos: 0 L⁻¹
  abs_eos: 1.3e+08 L⁻¹
  abs_lymphs: 1.95e+09 L⁻¹
  abs_monos: 2.9e+08 L⁻¹
  abs_neuts: 2.96e+09 L⁻¹
[2]; male, Day 8 (pre-dose)
  % BASO: 0.7%
  % EOS: 3.0%
  % MONO: 0.0%
  % NEUT: 80.9%
  HCT: 44.70%
  HGB: 146.00 g/L
  LYM: 15.4%
  MCH: 24.90 pg
  MCHC: 327.00 g/L
  MCV: 76.20 fL
  MPV: 10.60 fL
  PCT: 0.52%
  PDW: 15.70
  PLT: 4.9e+11 L⁻¹
  RBC: 5.86e+12 L⁻¹
  RDW-CV: 11.90%
  RDW-SD: 38.00 fL
  WBC: 1.166e+10 L⁻¹
  abs_basos: 8e+07 L⁻¹
  abs_eos: 3.5e+08 L⁻¹
  abs_lymphs: 1.79e+09 L⁻¹
  abs_monos: 0 L⁻¹
  abs_neuts: 9.44e+09 L⁻¹
[3]
  body weight: 3.50
